Legend:
Rattus norvegicus [1] = species: Rattus norvegicus; assay: Inhibition of angiogenesis (new microvessel growth) in rat aortic ring model at 200 uM in Endothelial basal medium (EBM) and Dimethylsulfoxide (DMSO); assay type: functional; conditions: Aorta
Rattus norvegicus [2] = species: Rattus norvegicus; assay: Inhibition of angiogenesis (new microvessel growth) in rat aortic ring model at 100 uM in Endothelial basal medium (EBM) and Dimethylsulfoxide (DMSO); assay type: functional; conditions: Aorta

Structure (SMILES): O=C1CCC(N2Cc3ccccc3C2=O)C(=O)N1 (configuration not stated)
- inhibition at 200 µM (Rattus norvegicus [1]): 30%
- inhibition at 100 µM (Rattus norvegicus [2]): 30%

Source: ChEMBL document CHEMBL1145065, “Thalidomide metabolites and analogues. 3. Synthesis and antiangiogenic activity of the teratogenic and TNFalpha-modulatory thalidomide analogue 2-(2,6-dioxopiperidine-3-yl)phthalimidine” (2003)
